Measurements reported in patent US8765772B2, “Purine derivatives for use in the treatment of allergic, inflammatory and infectious diseases” (GlaxoSmithKline LLC, priority 2008, dated 2014).

What follows are compounds tested on TNF-α (assay: Induction of TNF-α using fresh human PBMCs). Conditions: PBMC, 24 hr incubation, relative to 2 μM resiquimod control, read-out: mean pEC50 for induction of TNF-α (converted).
Format: cell-based
Procedure: Assay for the Induction of Interferon-α and TNF-α using Fresh Human Peripheral Blood Mononuclear Cells (PBMCs)
Compounds were dissolved and serially diluted in DMSO to give 100× the required concentration range using a Biomek 2000. 1 ul of test compound was transferred into 96-well tissue culture plates using a Biomek FX. Each compound was assayed in duplicate for each donor. Each plate contained a dilution series of the TLR7/8 agonist resiquimod as standard and Column 11 contained 1 μl of 200 μM resiquimod (giving a 2 μM final concentration, used to define the approximate maximal response to resiquimod).
Blood samples from two human donors were collected into sodium heparin (10 U/ml). 25 ml volumes of whole blood were overlaid onto 15 mls Histopaque in Leucosep tubes which were centrifuged at 800 g for 20 min and the band at the plasma/histopaque interface carefully removed. The collected cells were centrifuged at 2500 rpm for 10 min and the pellet resuspended in 10 ml of media (RPMI 1640 (Low endotoxin) supplemented with 10% v/v foetal calf serum (FCS, low endotoxin) 100 U/ml penicillin G, 100 μg/ml streptomycin, 10 mM L-glutamine and 1× non-essential amino acids). A 1:20 dilution of the cells was prepared using trypan blue & the cells counted using a haemocytometer. The PBMCs were diluted to give a final concentration of 2×10^6/ml and 100 ul of this cells suspension was added to wells containing 1 μl of diluted test compound.
Incubation and Assays for Interferon-α and TNF-α
The cell preparations were incubated for 24 hr (37° C., 95% air, 5% CO2) after which a sample of the supernatant was removed using the Biomek FX and assayed for both IFN-α and TNF-α using the MSD (Mesoscale Discovery) electrochemiluminescence assay platform. The IFN-α assay was carried out similarly to that described above. The TNF-α assay was carried out as per kit instructions (Cat No K111BHB). Cytokine released was expressed as a percentage of the 2 μM resiquimod control (column 11). This percentage was plotted against compound concentration and the pEC50 for the response determined by non-linear least squares curve fitting. For the IFN-α responses generally a 4 parameter logistic model was selected. For the TNF responses where a clear maximum response was obtained (i.e. a well defined plateau in the response was observed) then a 4 parameter model was generally used. If the upper asymptote of the curve wasn't well defined then the curve fitting was generally constrained to a maximal response of 100% (i.e. to the response to 2 μM resiquimod) or to the response of the highest concentration tested if this was greater than the resiquimod response. Some curves were bell shaped for one or both cytokines and the cytokine data on the down slope of the bell shaped response (i.e. concentrations above those giving the maximal response) were generally excluded from the fit, usually with the exception of the concentration immediately above the peak response. Curve fitting thus concentrated on the up slope of the dose response curve.

EC50, ≥ 1000 nM:
CCC[C@H](C)Oc1nc(N)c2[nH]c(=O)n(CCCCN3CCCCCC3)c2n1 [Example 21, 6-Amino-9-[4-(hexahydro-1H-azepin-1-yl)butyl]-2-{[(1S)-1-methylbutyl]oxy}-7,9-dihydro-8H-purin-8-one]
CCC[C@H](C)Oc1nc(N)c2[nH]c(=O)n(CCCCCN3CCCCC3)c2n1 [Example 22, 6-Amino-2-{[(1S)-1-methylbutyl]oxy}-9-[5-(1-piperidinyl)pentyl]-7,9-dihydro-8H-purin-8-one]
CCC[C@H](C)Oc1nc(N)c2[nH]c(=O)n(CCCCN3CCCCC3)c2n1 [Example 20, 6-Amino-2-{[(1S)-1-methylbutyl]oxy}-9-[4-(1-piperidinyl)butyl]-7,9-dihydro-8H-purin-8-one]
CCC[C@H](C)Oc1nc(N)c2[nH]c(=O)n(CCCCCN3CCCCCC3)c2n1 [Example 23, 6-Amino-9-[5-(hexahydro-1H-azepin-1-yl)pentyl]-2-{[(1S)-1-methylbutyl]oxy}-7,9-dihydro-8H-purin-8-one]
CCCCOc1nc(N)c2[nH]c(=O)n(CCCCCCN3CCCCCC3)c2n1 [Example 15, 6-Amino-2-(butyloxy)-9-[6-(hexahydro-1H-azepin-1-yl)hexyl]-7,9-dihydro-8H-purin-8-one]
CCCCOc1nc(N)c2[nH]c(=O)n(CCCCCCN3CCCC3)c2n1 [Example 13, 6-Amino-2-(butyloxy)-9-[6-(1-pyrrolidinyl)hexyl]-7,9-dihydro-8H-purin-8-one]
